Results as given in patent US20090280194A1, “USE OF NITROXYL (HNO) FOR THE TREATMENT OF CANCERS OVEREXPRESSING MAT-8” (priority 2008, published 2009).
Like-named read-outs stand apart in the source and are kept apart here.

Experiments:
[1] = system: LNCaP (androgen dependent) prostate tumor cells; experiment: Growth inhibition of prostate tumor cells, modified MTT assay; type: cell-based
Method: (§1) PC3 cells (filled circles) are hormone independent cells, whereas, LNCaP (opend circles) are hormone dependent cells. Y-axis indicates percentage of cell growth as measured by a modified MTT assay. X-axis in the concentration (mM) of Angeli's salt added every 24 hrs for a total of 72 hours.
(§2) A characteristic feature of PC3 (androgen independent) and LNCaP (androgen dependent) prostate tumor cells is the overexpression of an intrinsic plasma membrane Na^+/K^+ pump regulatory protein, MAT-8. As described above, overexpression of MAT-8 is a property shared with breast, pancreatic and lung carcinomas. The growth inhibition of PC3 and LNCaP cells by nitroxyl (HNO) donated by Angeli's salt (AS) was investigated.
(§3) PC3 (2500 cells/well) and LNCaP (4000 cells/well) cells were cultured in 200 μl of incubation media in each well of a 96-well assay plate 24 hours prior to the addition of AS. Following an overnight incubation at 37° C., appropriate AS concentrations were added to each well from a fresh stock solution of 0.5 M AS (Na2N2O3) in 10 mM NaOH (added to stabilize AS) diluted to 30 mM with cell culture medium. AS/HNO was added every 24 hours for a total of 72 hours. Cell viability was assayed using the MTT assay, a colorimetric method performed with minor modification according to the procedure of Mossman (1983) J. Immunol. Methods 65:55-63.

[2] = system: PC3 (androgen independent) prostate tumor cells; experiment: as above; type: cell-based
Method: as §1, §2, §3

SERCA2a = target: T1, SERCA2a (Canis lupus familiaris, UniProt O46674); experiment: EGTA-induced dephosphorylation (E2P hydrolysis) in native cardiac SR vesicles, quenched-flow mixing; type: biochemical, dog; conditions: 0.25 mM AS, 24° C.
T1 construct: native cardiac SR vesicles isolated from dog heart; from tissue; host or cells: dog heart, sarcoplasmic reticulum vesicles
T1 sequence (P61012 whole entry partner): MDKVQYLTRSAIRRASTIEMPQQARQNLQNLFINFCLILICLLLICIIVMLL
T1 sequence (O46674 whole entry): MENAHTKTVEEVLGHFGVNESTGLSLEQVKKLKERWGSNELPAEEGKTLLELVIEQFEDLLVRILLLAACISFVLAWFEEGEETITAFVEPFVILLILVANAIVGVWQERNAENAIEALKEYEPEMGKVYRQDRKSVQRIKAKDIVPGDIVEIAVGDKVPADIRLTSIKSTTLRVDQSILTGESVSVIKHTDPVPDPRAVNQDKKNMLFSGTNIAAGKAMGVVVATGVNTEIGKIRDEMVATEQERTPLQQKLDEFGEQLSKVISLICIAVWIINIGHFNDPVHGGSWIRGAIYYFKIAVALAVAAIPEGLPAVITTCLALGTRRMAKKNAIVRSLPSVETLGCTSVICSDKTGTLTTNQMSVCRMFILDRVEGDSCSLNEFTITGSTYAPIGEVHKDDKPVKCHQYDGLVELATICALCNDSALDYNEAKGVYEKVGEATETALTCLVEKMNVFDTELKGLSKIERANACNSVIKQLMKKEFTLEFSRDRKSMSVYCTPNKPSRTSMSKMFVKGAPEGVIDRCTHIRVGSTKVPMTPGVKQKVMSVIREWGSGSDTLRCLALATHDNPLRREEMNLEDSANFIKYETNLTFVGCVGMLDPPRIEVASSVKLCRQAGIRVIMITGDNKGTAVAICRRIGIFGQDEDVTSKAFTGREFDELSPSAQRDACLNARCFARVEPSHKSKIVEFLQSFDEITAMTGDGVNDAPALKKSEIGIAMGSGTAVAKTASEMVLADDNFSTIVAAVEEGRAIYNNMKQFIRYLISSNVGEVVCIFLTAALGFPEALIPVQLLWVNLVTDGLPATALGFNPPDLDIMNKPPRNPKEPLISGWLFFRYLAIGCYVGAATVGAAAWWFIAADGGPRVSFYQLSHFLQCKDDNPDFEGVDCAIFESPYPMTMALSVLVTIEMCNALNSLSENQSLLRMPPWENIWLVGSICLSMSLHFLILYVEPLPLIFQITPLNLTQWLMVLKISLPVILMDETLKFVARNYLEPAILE
Text: Y-axis indicates the level of E2P (nmol/mg), which undergoes hydrolysis in step 6 of FIG. 3. X-axis indicates time following addition of Angeli's salt (sec). The inset figure represents a normalized comparison of E2P hydrolysis in the presence (+AS) or absence (−AS) of Angeli's salt.
Investigations of the mechanism of the cardiac muscle sarcoplasmic reticulum (SR) Ca^2+ pump (SERCA2a) have provided a paradigm for understanding how the interaction of nitroxyl with a regulatory protein (phospholamban) can activate the pump. SERCA2a is a P-type cation pump, i.e., it utilizes ATP as its energy source for uphill Ca^2+ transport and becomes phosphorylated by ATP during the catalytic cycle (FIG. 3). Regulation of its activity by the small intrinsic cardiac SR membrane protein, phospholamban (PLB), involves primarily steps 6 and 8 which are rate-limiting in the overall transport cycle and control Vmax (steps 6 and 8) and the affinity of the cytoplasmic Ca^2+ transport sites, Km (step 8). Mahaney et al. (2005) Biochemistry 44:7713-7724 and Antipenko et al. (1997) Biochemistry 36:12903-12910. […]
SERCA2a was initially phosphorylated at the catalytic site using 10 μM [γ^32P]ATP and then subsequently dephosphorylated by chasing with 5 mM EGTA. […] In the absence of AS/HNO, E2P decay measured at 24° C. by quenched-flow mixing in dog cardiac SR is slow ([…]) and monophasic (FIG. 4).

SERCA2a + PLB (WT) = target: T2, SERCA2a + PLB (WT) (Canis lupus familiaris, UniProt O46674+P61012); experiment: E2P hydrolysis in Sf21 ER microsomes after EGTA chase; type: biochemical
T2 construct: made in house; host or cells: Sf21 insect cells (baculovirus), ER microsomes
T2 sequence (P61012 whole entry): as the sequence (P61012 whole entry partner) above
T2 sequence (O46674 whole entry): as the sequence (O46674 whole entry) above
Text: (§4) Nitroxyl (HNO) donated by Angeli's salt (AS) enhances intracellular Ca^2+ cycling in isolated cardiac myocytes by activating Ca^2+ release from ryanodine (RyR2) receptors and Ca^2+ re-uptake by the SR Ca^2+ pump. Tocchetti et al. (2007) Circ. Res. 100:96-104. In cardiac SR vesicles, activation of Ca^2+ uptake by HNO involves a direct interaction with the pump and is accompanied by enhanced dephosphorylation of the cardiac Ca^2+-ATPase isozyme, SERCA2a. To determine whether HNO interacts with SERCA2a or its regulatory protein, phospholamban (PLB) and to characterize the protein site(s) modified by HNO, activation of SERCA2a dephosphorylation by nitroxyl using SERCA2a and PLB (WT and mutant) expressed in Sf21 cell ER microsomes (baculovirus system) was investigated. Brief exposure of SERCA2a+WT PLB to 0.25 mM AS produced a 10-fold stimulation of dephosphorylation (0.5 s^−1→5 s^−1) following an EGTA chase (Table 2). […] Exposure to dithiothreitol (2 mM DTT) reversed the activation of dephosphorylation by nitroxyl, similar to its effect on HNO-induced activation of Ca^2+ release from the RyR2 receptor. Tocchetti et al. (2007) Circ. Res. 100:96-104.

SERCA2a + PLB (−C) = target: T3, SERCA2a + PLB (−C) (Homo sapiens, UniProt P16615+P26678, C36A/C41A/C46A); experiment: as above; type: biochemical
T3 construct: made in house; host or cells: Sf21 insect cells (baculovirus), ER microsomes
T3 sequence (P16615 1-997 isoform P16615-2, stated change not applied): as the sequence (O46674 whole entry) above, with S376T, K403N, P538S, V544I, N576H, S661N, S713A, D877E, L963V counted along it
T3 sequence (P26678 whole entry C36A/C41A/C46A): as the sequence (P61012 whole entry partner) above, with D2E, N27K, C36A, C41A, C46A counted along it
Text: as §4

SERCA2a alone = experiment: as above; type: biochemical; conditions: 0.25 mM AS
Text: as §4

SR Ca^2+ pump (SERCA2a) = target: T4, SR Ca^2+ pump (SERCA2a) (Mus musculus, UniProt O55143); conditions: brief exposure to AS (0.25 mM); SR vesicles from mouse heart; cited from earlier work
T4 construct: Using SR vesicles prepared from mouse heart; host or cells: mouse heart SR vesicles
T4 sequence (P61014 whole entry partner): as the sequence (P61012 whole entry partner) above, with D2E counted along it
T4 sequence (O55143 1-998 isoform O55143-2): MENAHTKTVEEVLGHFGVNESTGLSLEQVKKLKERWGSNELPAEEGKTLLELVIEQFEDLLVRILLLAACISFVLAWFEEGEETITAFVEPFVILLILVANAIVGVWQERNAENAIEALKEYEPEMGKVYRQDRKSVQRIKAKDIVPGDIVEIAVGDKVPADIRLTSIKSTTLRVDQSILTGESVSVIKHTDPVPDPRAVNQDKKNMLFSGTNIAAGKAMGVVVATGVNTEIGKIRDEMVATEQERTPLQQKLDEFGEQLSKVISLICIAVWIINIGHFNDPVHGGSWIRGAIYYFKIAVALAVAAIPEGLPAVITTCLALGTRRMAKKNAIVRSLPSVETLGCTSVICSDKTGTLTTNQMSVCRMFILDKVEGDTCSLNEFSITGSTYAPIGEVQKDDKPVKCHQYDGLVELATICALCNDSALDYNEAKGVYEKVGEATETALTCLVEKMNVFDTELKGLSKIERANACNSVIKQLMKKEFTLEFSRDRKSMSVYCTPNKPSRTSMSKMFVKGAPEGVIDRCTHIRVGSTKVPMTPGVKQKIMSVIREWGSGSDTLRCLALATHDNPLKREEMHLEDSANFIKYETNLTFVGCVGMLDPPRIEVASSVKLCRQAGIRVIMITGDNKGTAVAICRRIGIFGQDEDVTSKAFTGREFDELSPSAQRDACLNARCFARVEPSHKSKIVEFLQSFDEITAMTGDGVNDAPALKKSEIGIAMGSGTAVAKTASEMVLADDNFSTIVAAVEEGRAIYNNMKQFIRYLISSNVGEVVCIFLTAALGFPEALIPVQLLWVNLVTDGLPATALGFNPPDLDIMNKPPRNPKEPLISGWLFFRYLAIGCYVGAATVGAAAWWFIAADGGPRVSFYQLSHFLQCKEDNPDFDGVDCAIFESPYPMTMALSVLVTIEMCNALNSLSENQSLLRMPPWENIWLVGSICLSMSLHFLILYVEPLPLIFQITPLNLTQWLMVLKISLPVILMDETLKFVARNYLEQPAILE

[3] = cited from earlier work
cells = conditions: cited from earlier work
[4] = AS added every 24 h for 72 h, read-out: Experiment 2 (EC50)
[5] = AS added every 24 h for 72 h, read-out: Experiment 3 (EC50)
[6] = mean of 3 independent experiments, read-out: Mean EC50
[7] = range given for both cell lines, read-out: EC50 growth inhibition over a series of three separate experiments

EC50 ([1]; AS added every 24 h for 72 h, read-out: Experiment 1 (EC50)): 3000 µM | EC50 [1, 4]: 900 µM | EC50 [1, 5]: 1200 µM | EC50 [1, 6]: 1700 µM | EC50 ([1]; mean of experiments 2 and 3 only (experiment 1 left out), read-out: Mean EC50): 1050 µM | EC50 [1, 7]: 1000 to 1700 µM | EC50 ([2]; AS added every 24 h for 72 h, 50% growth inhibition, read-out: Experiment 1 (EC50)): 1400 µM | EC50 [2, 4]: 700 µM | EC50 [2, 5]: 1400 µM | EC50 [2, 6]: 1170 µM | EC50 [2, 7]: 1000 to 1700 µM | E2P decay, accelerated initial decay phase (SERCA2a; without AS 11 s^−1): 77 s⁻¹ | E2P decay pattern (SERCA2a; without AS monophasic): biphasic decay pattern | A1 (%) amplitude fast phase (SERCA2a + PLB (WT); 0.25 mM AS, 0° C.): 11% | A2 (%) amplitude slow phase (SERCA2a + PLB (WT); 0.25 mM AS, 0° C.): 89% | k1 (SERCA2a + PLB (WT); 0.25 mM AS, 0° C.): 5.00 s⁻¹ | k2 (SERCA2a + PLB (WT); 0.25 mM AS, 0° C.): 0.154 s⁻¹ | dephosphorylation rate (SERCA2a + PLB (WT); 0.25 mM AS, EGTA chase, from 0.5 s^−1 without AS): 5 s⁻¹ | stimulation of dephosphorylation (SERCA2a + PLB (WT); brief exposure to 0.25 mM AS, EGTA chase): 10 fold | A1 (%) amplitude fast phase (SERCA2a + PLB (−C); 0.25 mM AS, 0° C.): 100% | k1 (SERCA2a + PLB (−C); 0.25 mM AS, 0° C.): 0.18 s⁻¹ | stimulation of dephosphorylation by nitroxyl (SERCA2a + PLB (−C); mutant PLB, all 3 transmembrane cysteines Cys→Ala): no stimulation
Structure (SMILES): [Na+].[Na+].[O-][N+]([O-])=NO [Angeli's salt]
A1 (%) amplitude fast phase (SERCA2a alone; 0° C.): 23% | A2 (%) amplitude slow phase (SERCA2a alone; 0° C.): 77% | k1 (SERCA2a alone; 0° C.): 4.64 s⁻¹ | k2 (SERCA2a alone; 0° C.): 0.174 s⁻¹ | stimulation of dephosphorylation (SERCA2a alone; microsomes expressing SERCA2a alone): No additional stimulation | effect on Ca^2+ uptake (SR Ca^2+ pump (SERCA2a)): activates Ca^2+uptake | water solubility [3]: highly water soluble | cell permeation (cells): rapidly permeates cells
